Experiments:
Assay type in all cases: cell-based
HCV GT 1a replicon = test: HCV replicon assay, stable GT 1a replicon (Renilla luciferase); settings: Hepatitis C virus, GT1A; HCV GT 1a replicon, 72 h; read-out: EC50 1a
Summary of the method: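 Huh-7.5 cells stably carrying a GT1a replicon (H77-based) with Renilla luciferase-Neo reporter, 4000 cells/well, sixteen-point half-log compound series, phenol red-free DMEM without G418. Luciferase read after 72 h relative to DMSO-treated cells gives EC50.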

[1] = system: GT1a replicon encoding NS5A mutation Q30R; test: Transient replication assay, GT1a replicon with NS5A mutation Q30R; settings: Hepatitis C virus, read-out: EC50 1a Q30R
[2] = system: GT1a replicon encoding NS5A mutation L31V; test: Transient replication assay, GT1a replicon with NS5A mutation L31V; settings: Hepatitis C virus, read-out: EC50 1a L31V
[3] = system: GT1a replicon encoding NS5A mutation Y93H; test: Transient replication assay, GT1a replicon with NS5A mutation Y93H; settings: Hepatitis C virus, read-out: EC50 1a Y93H

| Structure (SMILES) | EC50 (HCV GT 1a replicon) | EC50 [1] | EC50 [2] | EC50 [3] |
| --- | --- | --- | --- | --- |
| COC(=O)N[C@H](C(=O)N1C[C@]2(CCCOC2)C[C@H]1c1ncc(-c2ccc3c(c2)COc2cc(-c4cnc([C@@H]5C[C@@H]6CCCC[C@@H]6N5C(=O)[C@@H](NC(=O)OC)C(C)C)[nH]4)ccc2-3)[nH]1)C(C)C [Compound 15] | 0.008 nM | 0.003 nM | 0.1 nM | 5 nM |
| COC(=O)N[C@H](C(=O)N1[C@H](c2nc3ccc4cc(-c5ccc(-c6cnc([C@@H]7C[C@@]8(CCCOC8)CN7C(=O)[C@@H](NC(=O)OC)C7C[C@@H](C)O[C@H](C)C7)[nH]6)cc5)ccc4c3[nH]2)C[C@@H]2CCCC[C@@H]21)C(C)C (stereo in doubt) [Compound 38] | 0.008 nM | 0.002 nM | 0.002 nM | 0.2 nM |
| COC(=O)N[C@H](C(=O)N1C[C@@]2(CCOC2)C[C@H]1c1ncc(-c2ccc(-c3ccc4c(ccc5nc([C@@H]6C[C@]7(CCOC7)CN6C(=O)[C@@H](NC(=O)OC)C(C)C)[nH]c54)c3)cc2)[nH]1)C(C)C [Compound 49] | 0.01 nM | 0.2 nM | 5 nM | 12 nM |
| COC(=O)N[C@H](C(=O)N1C[C@@]2(CCCOC2)C[C@H]1c1ncc(-c2ccc(-c3ccc4c(ccc5nc([C@@H]6CCCN6C(=O)[C@@H](NC(=O)OC)C(C)C)[nH]c54)c3)cc2)[nH]1)C(C)C [Compound 27] | 0.013 nM | 0.06 nM | 0.1 nM | 1 nM |
| COC(=O)N[C@H](C(=O)N1CC2(CC2)C[C@H]1c1nc2ccc3cc(-c4ccc5c(ccc6nc([C@@H]7C[C@@]8(CCCOC8)CN7C(=O)[C@@H](NC(=O)OC)C(C)C)[nH]c65)c4)ccc3c2[nH]1)C(C)C [Compound 7] | 0.009 nM | 0.03 nM | 0.1 nM | 1 nM |
| COC(=O)N[C@H](C(=O)N1C[C@]2(CCCOC2)C[C@H]1c1nc2ccc3cc(-c4ccc5c(ccc6nc([C@@H]7C[C@@H]8CCC[C@@H]8N7C(=O)[C@@H](NC(=O)OC)C(C)C)[nH]c65)c4)ccc3c2[nH]1)C(C)C [Compound 9] | 0.007 nM | 0.01 nM | 0.07 nM | 2 nM |
| COC(=O)N[C@H](C(=O)N1C[C@]2(CCCOC2)C[C@H]1c1nc2ccc3cc(-c4ccc5c(ccc6nc([C@@H]7C[C@@]8(CCCOC8)CN7C(=O)[C@@H](NC(=O)OC)C(C)C)[nH]c65)c4)ccc3c2[nH]1)C(C)C [Compound 31] | 0.03 nM | 0.02 nM | 0.03 nM | 0.2 nM |
| COC(=O)N[C@H](C(=O)N1CCC[C@H]1c1nc2ccc3cc(-c4ccc5c(ccc6nc([C@@H]7CCCN7C(=O)[C@@H](NC(=O)OC)C(C)C)[nH]c65)c4)ccc3c2[nH]1)C(C)C [Example 101] | 0.011 nM | 0.2 nM | 6 nM | 25 nM |
